Results on ten compounds are retold here after ChEMBL document CHEMBL1201862, “PubChem BioAssay data set” (2004).

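Exposure lasted 48 hours, with cells grown in 96-well plates and compounds tested at five concentrations. GI50: concentration for 50% inhibition of growth.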 Active and inactive are the calls of the source. No stated cut-off is given here; in the data, active = GI50 up to about 1.1 µM and inactive = higher.

Among the test systems are CAKI-1; CCRF-CEM; COLO 205; EKVX; HCT-116; IGROV-1; K562; KM12; M14; NCI-H522; NCI/ADR-RES; OVCAR-4; OVCAR-5; PC-3; SK-MEL-28; SK-MEL-2; SN12C; SW-620; T47D.
Holding throughout (test): NCI tumour cell line growth inhibition, 48 h

In the case of `O=C(O/C=C\OC1CCCC1(c1ccccc1)c1ccccc1)c1ccccc1` (configuration not stated), the GI50 in the experiment with CAKI-1 is > 46.1 µM (inactive); in the experiment on CCRF-CEM, 2.04 µM (inactive); in the experiment on COLO 205 it was 15.6 µM (inactive); in the experiment with EKVX it was 17.5 µM (inactive); in the experiment with HCT-116, 2.51 µM (inactive); in the experiment on IGROV-1, 2.6 µM (inactive). Besides, the GI50 was 4.19 µM (inactive) in the experiment on K562; 14.9 µM (inactive) in the experiment with KM12; 2.79 µM (inactive) in the experiment with M14; 19 µM (inactive) in the experiment on NCI-H522; 2.88 µM (inactive) in the experiment on NCI/ADR-RES; 3.15 µM (inactive) with OVCAR-4. Also, the GI50 in the experiment with OVCAR-5 is 16.8 µM (inactive); with PC-3, 3.34 µM (inactive); with SK-MEL-28, 5.71 µM (inactive); with SK-MEL-2, 3.31 µM (inactive); in the experiment with SN12C it was 3.95 µM (inactive); in the experiment on SW-620, 2.7 µM (inactive). Moreover, the GI50 in the experiment on T47D is 1.61 µM (inactive).

On to `CC(=O)Nc1ccc(NS(=O)(=O)c2ccc3nc(C)n(NS(=O)(=O)c4ccc(NC(C)=O)cc4)c(=O)c3c2)cc1`, for which the GI50 in the experiment on CAKI-1, in the experiment on CCRF-CEM, in the experiment with COLO 205, in the experiment on EKVX, with HCT-116 and in the experiment on IGROV-1 was > 100 µM (inactive) each time. For the same compound, the GI50 in the experiment on K562 was > 100 µM (inactive); in the experiment on KM12 it was > 100 µM (inactive); in the experiment with M14, > 100 µM (inactive); with NCI-H522, > 60.7 µM (inactive); in the experiment with NCI/ADR-RES, > 100 µM (inactive); in the experiment with OVCAR-4 it was > 100 µM (inactive). The GI50 with OVCAR-5, in the experiment on PC-3, with SK-MEL-28, with SK-MEL-2, with SN12C and in the experiment on SW-620 was > 100 µM (inactive) throughout. Moreover, in the experiment with T47D, the GI50 was > 100 µM (inactive).

Consider `CC12NC(=C(C#N)C#N)C(C#N)=C3NC(N)=C(C#N)C(=C31)Oc1ccccc12` (configuration not stated), for which the GI50 in the experiment on CAKI-1 was > 29.4 µM (inactive); with CCRF-CEM, > 29 µM (inactive); with COLO 205 it was 4.71 µM (inactive); in the experiment on EKVX it was > 66.5 µM (inactive); in the experiment with HCT-116 it was 4.53 µM (inactive); with IGROV-1, 4.01 µM (inactive). Besides, the GI50 with K562 is > 43.2 µM (inactive); with KM12, 3.77 µM (inactive); with M14, > 44.4 µM (inactive); in the experiment on NCI-H522, 56.2 µM (inactive); in the experiment on NCI/ADR-RES, > 100 µM (inactive); in the experiment with OVCAR-4 it was 62.1 µM (inactive). Moreover, the GI50 with OVCAR-5 was 47.8 µM (inactive); in the experiment with PC-3, 30.1 µM (inactive); with SK-MEL-28, > 66.7 µM (inactive); with SK-MEL-2 it was 6.7 µM (inactive); with SN12C, > 30.7 µM (inactive); in the experiment with SW-620, > 26.6 µM (inactive). Further, the GI50 in the experiment with T47D is > 79.1 µM (inactive).

With `Nc1ccn(C2CC(O)C(COP(=O)(S)OC3CC(n4ccc(N)nc4=O)OC3CO)O2)c(=O)n1` (configuration not stated), the GI50 with CAKI-1 was > 100 µM (inactive); in the experiment with CCRF-CEM it was > 100 µM (inactive); in the experiment on COLO 205, 13.8 µM (inactive); with EKVX, > 100 µM (inactive); in the experiment on HCT-116 it was > 100 µM (inactive); with IGROV-1, > 100 µM (inactive). The GI50 in the experiment on KM12, in the experiment on M14, in the experiment on NCI-H522, with NCI/ADR-RES, in the experiment on OVCAR-4 and in the experiment with OVCAR-5 was > 100 µM (inactive) each time. Besides, the GI50 with PC-3 was > 100 µM (inactive); in the experiment with SK-MEL-28 it was > 100 µM (inactive); in the experiment on SK-MEL-2, > 100 µM (inactive); with SN12C it was 52.4 µM (inactive); in the experiment on SW-620, > 100 µM (inactive); in the experiment with T47D, > 100 µM (inactive).

Regarding `CCOc1cc(C2CC(c3ccc(NS(=O)(=O)c4cc([N+](=O)[O-])ccc4C)cc3)=NN2)ccc1O` (configuration not stated), the GI50 is 29.3 µM (inactive) with CAKI-1; 30.8 µM (inactive) in the experiment with CCRF-CEM; 22.3 µM (inactive) in the experiment with COLO 205; 21.4 µM (inactive) with EKVX; 20.4 µM (inactive) in the experiment with HCT-116; 58.9 µM (inactive) with IGROV-1. For the same compound, the GI50 with K562 was 24.5 µM (inactive); in the experiment with M14, 19 µM (inactive); in the experiment on NCI-H522, 26.9 µM (inactive); in the experiment with NCI/ADR-RES it was 24.2 µM (inactive); in the experiment with OVCAR-4 it was 22.8 µM (inactive); with OVCAR-5, 32.1 µM (inactive). The GI50 is 31 µM (inactive) with PC-3; 32.4 µM (inactive) in the experiment with SK-MEL-28; 21.7 µM (inactive) in the experiment with SK-MEL-2; 20 µM (inactive) in the experiment with SN12C; 32.8 µM (inactive) in the experiment with SW-620; 27.9 µM (inactive) in the experiment on T47D.

For `Cc1sc2ccccc2[n+]1CCC(=O)O`, the GI50 with CAKI-1 was > 100 µM (inactive); with COLO 205 it was > 100 µM (inactive); in the experiment with EKVX, > 100 µM (inactive); in the experiment on HCT-116 it was > 100 µM (inactive); in the experiment with IGROV-1 it was > 100 µM (inactive); in the experiment with K562 it was 6.67 µM (inactive). The GI50 in the experiment on KM12, with M14, with NCI-H522, in the experiment with NCI/ADR-RES, in the experiment on OVCAR-4 and in the experiment with OVCAR-5 was > 100 µM (inactive) throughout. The GI50 with PC-3, with SK-MEL-28, in the experiment with SK-MEL-2, with SN12C, with SW-620 and in the experiment with T47D was > 100 µM (inactive) in each case.

Turning to `CC(C)OP(=O)(OC(C)C)C(C(C)C)N(C)/C(N)=N/C#N` (configuration not stated), the GI50 with CAKI-1, in the experiment on CCRF-CEM, in the experiment on COLO 205, with EKVX, with HCT-116 and in the experiment on IGROV-1 was > 100 µM (inactive) each time. Moreover, the GI50 in the experiment on K562, in the experiment with KM12, in the experiment on M14, with NCI-H522, in the experiment on NCI/ADR-RES and with OVCAR-4 was > 100 µM (inactive) throughout. For the same compound, the GI50 in the experiment on PC-3, in the experiment on SK-MEL-28, in the experiment on SK-MEL-2, in the experiment with SN12C, with SW-620 and with T47D was > 100 µM (inactive) in each case.

Regarding `CC1=NN(c2nc(N)nc(/C(C#N)=C\C3COc4ccccc4C3=O)n2)C(C)(C)C1` (configuration not stated), the GI50 in the experiment with CAKI-1 is 23.6 µM (inactive); with CCRF-CEM, 1.9 µM (inactive); in the experiment with EKVX it was 22.5 µM (inactive); in the experiment on HCT-116, 20.6 µM (inactive); in the experiment on IGROV-1, 32.7 µM (inactive); with K562, 32.1 µM (inactive). Also, the GI50 in the experiment on KM12 is 36.7 µM (inactive); in the experiment on M14, 23.7 µM (inactive); in the experiment on NCI-H522, 26.2 µM (inactive); in the experiment on NCI/ADR-RES, 15.9 µM (inactive); in the experiment on OVCAR-4, 34 µM (inactive); in the experiment with OVCAR-5, 35.6 µM (inactive). For the same compound, the GI50 with PC-3 is 24.4 µM (inactive); in the experiment with SK-MEL-28, 21.6 µM (inactive); in the experiment on SK-MEL-2, 14.8 µM (inactive); in the experiment with SW-620, 30.7 µM (inactive); in the experiment with T47D it was 18.2 µM (inactive).

With `COc1cc(C2c3cc4c(cc3OC(Nc3ccccc3)C2C)OCO4)cc(OC)c1OC` (configuration not stated), the GI50 with CAKI-1 was 0.555 µM (active); with CCRF-CEM, 0.315 µM (active); in the experiment on COLO 205 it was 0.415 µM (active); with EKVX, 1.31 µM (inactive); in the experiment on HCT-116, 0.42 µM (active); with IGROV-1 it was 1.41 µM (inactive). The GI50 in the experiment with K562 was 0.282 µM (active); with KM12, 0.48 µM (active); with M14 it was 0.381 µM (active); with NCI-H522, 0.337 µM (active); in the experiment on NCI/ADR-RES, 0.564 µM (active); with OVCAR-4, 24.7 µM (inactive). Further, the GI50 was 0.468 µM (active) with PC-3; 1.61 µM (inactive) in the experiment on SK-MEL-28; 5.65 µM (inactive) with SK-MEL-2; 0.659 µM (active) with SN12C; 0.473 µM (active) in the experiment on SW-620; 42.3 µM (inactive) with T47D.

Take `CCCCSC1=N/C(=C\c2ccc(N(C)C)cc2)C(NN)=N1`: the GI50 in the experiment with CAKI-1, in the experiment on CCRF-CEM, in the experiment with EKVX, with HCT-116, in the experiment with IGROV-1 and in the experiment with K562 was > 100 µM (inactive) in each case. The GI50 with KM12, in the experiment with M14, in the experiment on NCI-H522, in the experiment on NCI/ADR-RES, with OVCAR-4 and in the experiment with OVCAR-5 was > 100 µM (inactive) in each case. Further, the GI50 in the experiment with PC-3, with SK-MEL-28, with SK-MEL-2, in the experiment with SN12C, with SW-620 and in the experiment with T47D was > 100 µM (inactive) throughout.
